Measurements: patent publication US11865134B2, “Treatment of inflammation with glucocorticoids and angiopoietin-like 7 (ANGPTL7) inhibitors” (Regeneron Pharmaceuticals, Inc., priority 2021, dated 2024)

Assays:
Assay type in all cases: in vivo
ANGPTL7 KO mice = assay: DEX-Ac-induced ocular hypertension in ANGPTL7 KO mice (IOP measurement); conditions: weekly periocular CF injections of DEX-Ac in both eyes, versus vehicle-treated, week 1 to week 6
From the text: (§1) IOP measurements of DEX-Ac-treated (n=18) versus vehicle-treated (n=6) mice show IOP elevation from week 1 to 6; **p<0.01, ***p<0.001, ****p<0.0001.

ANGPTL7 WT mice = assay: DEX-Ac-induced ocular hypertension in ANGPTL7 WT mice (IOP measurement); conditions: weekly periocular CF injections of DEX-Ac in both eyes, versus vehicle-treated, week 1 to 6
From the text: as §1

ANGPTL7 = ANGPTL7 siRNA in DEX-Ac-induced ocular hypertension (steroid-induced IOP) in wild-type mice; conditions: WT mice; weekly periocular CF injections of DEX-Ac to both eyes; compared with vehicle-treated mice; starting 6-days post-injection
From the text: dsRNA were further assessed for their ability to reduce steroid induced IOP in vivo in wild-type mice. […] Mice were divided into following groups as shown in FIG. 4: a) Vehicle (n=4), b) Vehicle+PBS (n=6), c) DEX-Ac (n=12), d) DEX-Ac+siRNA #3 (n=14), and e) DEX-Ac+siRNA #5 (n=14). […] At Day 22, siRNA targeting ANGPTL7 (#3 and #5) were intravitreally injected into groups: d and e (DEX-Ac+siRNA #3 and DEX-Ac+siRNA #5) and IOP measurements continued to be recorded.

IOP elevation (ANGPTL7 KO mice): did not elevate IOP | IOP elevation (ANGPTL7 WT mice): significantly elevated IOP | IOP elevation (ANGPTL7): rapid and significantly higher
SMILES: CC(=O)OCC(=O)[C@@]1(O)[C@H](C)C[C@H]2[C@@H]3CCC4=CC(=O)C=C[C@]4(C)[C@@]3(F)[C@@H](O)C[C@@]21C [DEX-Ac, dexamethasone-21-acetate]
